From patent US20230355626A1, “INHIBITORS OF HUMAN IMMUNODEFICIENCY VIRUS REPLICATION” (VIIV HEALTHCARE UK (NO.5) LIMITED, priority 2020, published 2023) come the findings set out here.

For orientation: pEC50 means the negative decadic logarithm of the EC50, by convention in mol/L. The term CC50 denotes the concentration at which the toxic effect on the cells reaches its halfway point. Low readings indicate harm at low concentration, high ones better tolerance by the cells.

For one series, the system named is recombinant NL4-3 virus. The series is described as follows: HIV cell culture assay (antiviral activity, luciferase readout in infected MT-2 cells). It is filed as cell-based. The note with it: Human immunodeficiency virus 1, NL43, MT2. On the procedure:
HIV cell culture assay—MT-2 cells, 293T cells and the proviral DNA clone of NL4-3 virus were obtained from the NIH AIDS Research and Reference Reagent Program. MT-2 cells were propagated in RPMI 1640 media supplemented with 10% heat inactivated fetal bovine serum (FBS), 100 μg/ml penicillin G and up to 100 units/mL streptomycin. The 293T cells were propagated in DMEM media supplemented with 10% heat inactivated FBS, 100 μg/mL penicillin G and 100 μg/mL streptomycin. A recombinant NL4-3 proviral clone, in which a section of the nef gene was replaced with the Renilla luciferase gene, was used to make the reference virus used in these studies. The recombinant virus was prepared through transfection of the recombinant NL4-3 proviral clone into 293T cells using Transit-293 Transfection Reagent from Mirus Bio LLC (Madison, WI). Supernatant was harvested after 2-3 days and the amount of virus present was titered in MT-2 cells using luciferase enzyme activity as a marker by measuring luciferase enzyme activity. Luciferase was quantitated using the EnduRen Live Cell Substrate from Promega (Madison, WI). Antiviral activities of compounds toward the recombinant virus were quantified by measuring luciferase activity in MT-2 cells infected for 4-5 days with the recombinant virus in the presence of serial dilutions of the compound.
The 50% effective concentration (EC50) was calculated by using the exponential form of the median effect equation where (Fa)=1/[1+(ED50/drug conc.)m] (Johnson VA, Byington RT. Infectivity Assay. In Techniques in HIV Research. ed. Aldovini A, Walker BD. 71-76. New York: Stockton Press.1990). Curve fitting and analysis were performed with ActivityBase XE Runner software version 9.1.0.4 using model 203 (ID Business Solutions, LTD, Guildford, UK).

Series [1] can be described thus: Compound cytotoxicity, XTT-based colorimetric assay. The class given is cell-based. The note with it: human; uninfected MT2 cells, day 4, XTT assay. On the procedure: Compound cytotoxicity and the corresponding CC50 values were determined using the same protocol as described in the antiviral assay except that uninfected cells were used. Cytotoxicity was assessed on day 4 in uninfected MT2 cells by using an XTT (2,3-bis[2-Methoxy-4-nitro-5-sulfophenyl]-2H-tetrazolium-5-carboxyanilide inner salt)-based colorimetric assay (Sigma-Aldrich, St Louis, Mo).
Background: Tetrazolium assays rely on reduction of a dye to a coloured formazan, in cell work by metabolically active cells.

Each structure is given as a SMILES string. pEC50: −log10 of the molar value.

For `Cn1nc(COc2ccc3c(=O)n(-c4ccc(Cl)c5c(NS(C)(=O)=O)nn(C)c45)c([C@H](Cc4cc(F)cc(F)c4)NC(=O)Cn4nc(C(F)F)c5c4C(F)(F)[C@@H]4C[C@H]54)nc3n2)cc1C(F)(F)F` (atropisomer, axis not shown; (P)) [Example 13, N-((S)-1-((3P)-3-(4-chloro-1-methyl-3-(methylsulfonamido)-1H-indazol-7-yl)-7-((1-methyl-5-(trifluoromethyl)-1H-pyrazol-3-yl)methoxy)-4-oxo-3,4-dihydropyrido[2,3-d]pyrimidin-2-yl)-2-(3,5-difluorophenyl)ethyl)-2-((3bS,4aR)-3-(difluoromethyl)-5,5-difluoro-3b,4,4a,5-tetrahydro-1H-cyclopropa[3,4]cyclopenta[1,2-c]pyrazol-1-yl)acetamide], the negative logarithm of the EC50 (pEC50) in the series on recombinant NL4-3 virus was 10.24. In series [1], this molecule displayed a CC50 at 4 day of more than 100000 pM.
In the same order, the values of `Cn1nc(NS(C)(=O)=O)c2c(Cl)ccc(-n3c([C@H](Cc4cc(F)cc(F)c4)NC(=O)Cn4nc(C(F)F)c5c4C(F)(F)[C@@H]4C[C@H]54)nc4nc(OCC5CC(F)(F)C5)ccc4c3=O)c21` (atropisomer, axis not shown; (P)) [Example 31, N-((S)-1-((3P)-3-(4-chloro-1-methyl-3-(methylsulfonamido)-1H-indazol-7-yl)-7-((3,3-difluorocyclobutyl)methoxy)-4-oxo-3,4-dihydropyrido[2,3-d]pyrimidin-2-yl)-2-(3,5-difluorophenyl)ethyl)-2-((3bS,4aR)-3-(difluoromethyl)-5,5-difluoro-3b,4,4a,5-tetrahydro-1H-cyclopropa[3,4]cyclopenta[1,2-c]pyrazol-1-yl)acetamide] are 10.46 and more than 100000 pM.
As for `Cn1nc(NS(C)(=O)=O)c2c(Cl)ccc(-n3c([C@H](Cc4cc(F)cc(F)c4)NC(=O)Cn4nc(C(F)F)c5c4C(F)(F)[C@@H]4C[C@H]54)nc4nc(OCC(F)(F)C(F)(F)C(F)(F)F)ccc4c3=O)c21` (atropisomer, axis not shown; (P)) [Example 39, N-((S)-1-((3P,3P)-3-(4-chloro-1-methyl-3-(methylsulfonamido)-1H-indazol-7-yl)-7-(2,2,3,3,4,4,4-heptafluorobutoxy)-4-oxo-3,4-dihydropyrido[2,3-d]pyrimidin-2-yl)-2-(3,5-difluorophenyl)ethyl)-2-((3bS,4aR)-3-(difluoromethyl)-5,5-difluoro-3b,4,4a,5-tetrahydro-1H-cyclopropa[3,4]cyclopenta[1,2-c]pyrazol-1-yl)acetamide], the pEC50 in the series with recombinant NL4-3 virus is 9.91. The same molecule displayed a CC50 at 4 day in series [1] of more than 100000 pM.
Taken in the same sequence, the figures for `Cn1nc(NS(C)(=O)=O)c2c(Cl)ccc(-n3c([C@H](Cc4cc(F)cc(F)c4)NC(=O)Cn4nc(C(F)F)c5c4C(F)(F)[C@@H]4C[C@H]54)nc4nc(OCCC(F)(F)C(F)(F)F)ccc4c3=O)c21` (atropisomer, axis not shown; (P)) [Example 19, N-((S)-1-((3P)-3-(4-chloro-1-methyl-3-(methylsulfonamido)-1H-indazol-7-yl)-4-oxo-7-(3,3,4,4,4-pentafluorobutoxy)-3,4-dihydropyrido[2,3-d]pyrimidin-2-yl)-2-(3,5-difluorophenyl)ethyl)-2-((3bS,4aR)-3-(difluoromethyl)-5,5-difluoro-3b,4,4a,5-tetrahydro-1H-cyclopropa[3,4]cyclopenta[1,2-c]pyrazol-1-yl)acetamide] were 10.36 and more than 100000 pM.
For `CN(CCCOc1ccc2c(=O)n(-c3ccc(Cl)c4c(NS(C)(=O)=O)nn(C)c34)c([C@H](Cc3cc(F)cc(F)c3)NC(=O)Cn3nc(C(F)F)c4c3C(F)(F)[C@@H]3C[C@H]43)nc2n1)CC(F)(F)F` (atropisomer, axis not shown; (P)) [Example 11, N-((S)-1-((3P)-3-(4-chloro-1-methyl-3-(methylsulfonamido)-1H-indazol-7-yl)-7-(3-(methyl(2,2,2-trifluoroethyl)amino)propoxy)-4-oxo-3,4-dihydropyrido[2,3-d]pyrimidin-2-yl)-2-(3,5-difluorophenyl)ethyl)-2-((3bS,4aR)-3-(difluoromethyl)-5,5-difluoro-3b,4,4a,5-tetrahydro-1H-cyclopropa[3,4]cyclopenta[1,2-c]pyrazol-1-yl)acetamide], the pEC50 in the series with recombinant NL4-3 virus was 10.57. This molecule also had a CC50 at 4 day in series [1] of more than 100000 pM.
Taken in the same sequence, the figures for `Cn1nc(NS(C)(=O)=O)c2c(Cl)ccc(-n3c([C@H](Cc4cc(F)cc(F)c4)NC(=O)Cn4nc(C(F)F)c5c4C(F)(F)[C@@H]4C[C@H]54)nc4nc(OCc5cccnc5)ccc4c3=O)c21` (atropisomer, axis not shown; (P)) [Example 3, N-[(1S)-1-[(3P)-3-(4-chloro-3-methanesulfonamido-1-methyl-1H-indazol-7-yl)-4-oxo-7-[(pyridin-3-yl)methoxy]-3H,4H-pyrido[2,3-d]pyrimidin-2-yl]-2-(3,5-difluorophenyl)ethyl]-2-[(2S,4R)-9-(difluoromethyl)-5,5-difluoro-7,8-diazatricyclo[4.3.0.0^2,^4]nona-1(6),8-dien-7-yl]acetamide] were 10.32 and more than 100000 pM.
In the same order, the values of `Cn1nc(NS(C)(=O)=O)c2c(Cl)ccc(-n3c([C@H](Cc4cc(F)cc(F)c4)NC(=O)Cn4nc(C(F)F)c5c4C(F)(F)[C@@H]4C[C@H]54)nc4nc(OCC5(C(F)(F)F)CC5)ccc4c3=O)c21` (atropisomer, axis not shown; (P)) [Example 21, N-((S)-1-((3P)-3-(4-chloro-1-methyl-3-(methylsulfonamido)-1H-indazol-7-yl)-4-oxo-7-((1-(trifluoromethyl)cyclopropyl)methoxy)-3,4-dihydropyrido[2,3-d]pyrimidin-2-yl)-2-(3,5-difluorophenyl)ethyl)-2-((3bS,4aR)-3-(difluoromethyl)-5,5-difluoro-3b,4,4a,5-tetrahydro-1H-cyclopropa[3,4]cyclopenta[1,2-c]pyrazol-1-yl)acetamide] are 10.34 and more than 500000 pM.
In the same order, the values of `Cn1nc(NS(C)(=O)=O)c2c(Cl)ccc(-n3c([C@H](Cc4cc(F)cc(F)c4)NC(=O)Cn4nc(C5CC5)c5c4C(F)(F)[C@@H]4C[C@H]54)nc4nc(OCC(F)(F)C(F)(F)F)ccc4c3=O)c21` (atropisomer, axis not shown; (P)) [Example 41, N-((S)-1-((3P, 3P)-3-(4-chloro-1-methyl-3-(methylsulfonamido)-1H-indazol-7-yl)-4-oxo-7-(2,2,3,3,3-pentafluoropropoxy)-3,4-dihydropyrido[2,3-d]pyrimidin-2-yl)-2-(3,5-difluorophenyl)ethyl)-2-((3bS,4aR)-3-cyclopropyl-5,5-difluoro-3b,4,4a,5-tetrahydro-1H-cyclopropa[3,4]cyclopenta[1,2-c]pyrazol-1-yl)acetamide] are 10.37 and more than 100000 pM.
